In PubChem BioAssay (NCI):
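Five concentrations, 48 hours, 96-well plates. TGI: total growth inhibition.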

Experiments:
Test in all cases: inhibition of tumour cell growth, NCI panel, 48 h
786-0 renal = test system: 786-0 renal
A549 NSCLC = test system: A549 NSCLC
ACHN renal = test system: ACHN renal
BT-549 breast = test system: BT-549 breast
CAKI-1 renal = test system: CAKI-1 renal
CCRF-CEM leukemia = test system: CCRF-CEM leukemia
COLO 205 colon = test system: COLO 205 colon
DU-145 prostate = test system: DU-145 prostate
EKVX NSCLC = test system: EKVX NSCLC
HCC-2998 colon = test system: HCC-2998 colon
HCT-116 colon = test system: HCT-116 colon
HCT-15 colon = test system: HCT-15 colon
HL-60(TB) leukemia = test system: HL-60(TB) leukemia
HOP-62 NSCLC = test system: HOP-62 NSCLC
HOP-92 NSCLC = test system: HOP-92 NSCLC
HS 578T breast = test system: HS 578T breast
HT29 colon = test system: HT29 colon
IGROV1 ovarian = test system: IGROV1 ovarian
K-562 leukemia = test system: K-562 leukemia
KM12 colon = test system: KM12 colon
LOX IMVI melanoma = test system: LOX IMVI melanoma
M14 melanoma = test system: M14 melanoma
MALME-3M melanoma = test system: MALME-3M melanoma
MCF7 breast = test system: MCF7 breast
MDA-MB-231 breast = test system: MDA-MB-231 breast
MDA-MB-435 = test system: MDA-MB-435
MDA-N = test system: MDA-N
MOLT-4 leukemia = test system: MOLT-4 leukemia
NCI-H226 lung = test system: NCI-H226 lung
NCI-H23 lung = test system: NCI-H23 lung
NCI-H522 lung = test system: NCI-H522 lung
NCI/ADR-RES ovarian = test system: NCI/ADR-RES ovarian
OVCAR-3 ovarian = test system: OVCAR-3 ovarian
OVCAR-4 ovarian = test system: OVCAR-4 ovarian
OVCAR-5 ovarian = test system: OVCAR-5 ovarian
OVCAR-8 ovarian = test system: OVCAR-8 ovarian
PC-3 prostate = test system: PC-3 prostate
RPMI-8226 leukemia = test system: RPMI-8226 leukemia
SF-268 CNS = test system: SF-268 CNS
SF-295 CNS = test system: SF-295 CNS
SF-539 CNS = test system: SF-539 CNS
SK-MEL-2 melanoma = test system: SK-MEL-2 melanoma
SK-MEL-5 melanoma = test system: SK-MEL-5 melanoma
SK-OV-3 ovarian = test system: SK-OV-3 ovarian
SN12C renal = test system: SN12C renal
SNB-19 CNS = test system: SNB-19 CNS
SNB-75 CNS = test system: SNB-75 CNS
SR leukemia = test system: SR leukemia
SW-620 colon = test system: SW-620 colon
T-47D breast = test system: T-47D breast
TK-10 renal = test system: TK-10 renal
U251 CNS = test system: U251 CNS
UACC-257 melanoma = test system: UACC-257 melanoma
UACC-62 melanoma = test system: UACC-62 melanoma
UO-31 renal = test system: UO-31 renal
NCI-H460 lung = test system: NCI-H460 lung
RXF 393 renal = test system: RXF 393 renal
SK-MEL-28 melanoma = test system: SK-MEL-28 melanoma
A498 renal = test system: A498 renal

Which results are given for `CCCCCC(=O)OCC(=O)[C@H]1[C@H](C)C[C@H]2[C@@H]3C[C@H](F)C4=C/C(=N/OC(=O)c5cccc6c(=O)c7ccccc7[nH]c56)C=C[C@]4(C)[C@H]3[C@@H](O)C[C@@]21C`?
TGI (786-0 renal): > 100 µM; TGI (A549 NSCLC): > 100 µM; TGI (ACHN renal): > 100 µM; TGI (BT-549 breast): 66.5 µM; TGI (CAKI-1 renal): > 100 µM; TGI (CCRF-CEM leukemia): > 100 µM; TGI (COLO 205 colon): 72.8 µM; TGI (DU-145 prostate): > 100 µM; TGI (EKVX NSCLC): > 100 µM; TGI (HCC-2998 colon): 82.4 µM; TGI (HCT-116 colon): 85.3 µM; TGI (HCT-15 colon): > 100 µM; TGI (HL-60(TB) leukemia): > 100 µM; TGI (HOP-62 NSCLC): > 100 µM; TGI (HOP-92 NSCLC): > 100 µM; TGI (HS 578T breast): > 100 µM; TGI (HT29 colon): 57.8 µM; TGI (IGROV1 ovarian): > 100 µM; TGI (K-562 leukemia): > 100 µM; TGI (KM12 colon): 27.3 µM; TGI (LOX IMVI melanoma): 35.7 µM; TGI (M14 melanoma): 77.9 µM; TGI (MALME-3M melanoma): 33.2 µM; TGI (MCF7 breast): 54.9 µM; TGI (MDA-MB-231 breast): > 100 µM; TGI (MDA-MB-435): 55.3 µM; TGI (MDA-N): 76.8 µM; TGI (MOLT-4 leukemia): > 100 µM; TGI (NCI-H226 lung): > 100 µM; TGI (NCI-H23 lung): > 100 µM; TGI (NCI-H522 lung): 46 µM; TGI (NCI/ADR-RES ovarian): 41.1 µM; TGI (OVCAR-3 ovarian): 65.5 µM; TGI (OVCAR-4 ovarian): > 100 µM; TGI (OVCAR-5 ovarian): > 100 µM; TGI (OVCAR-8 ovarian): 65.9 µM; TGI (PC-3 prostate): 53.8 µM; TGI (RPMI-8226 leukemia): 14.9 µM; TGI (SF-268 CNS): > 100 µM; TGI (SF-295 CNS): > 100 µM; TGI (SF-539 CNS): > 100 µM; TGI (SK-MEL-2 melanoma): 76.8 µM; TGI (SK-MEL-5 melanoma): 27.8 µM; TGI (SK-OV-3 ovarian): > 100 µM; TGI (SN12C renal): > 100 µM; TGI (SNB-19 CNS): > 100 µM; TGI (SNB-75 CNS): 69 µM; TGI (SR leukemia): 93.3 µM; TGI (SW-620 colon): > 100 µM; TGI (T-47D breast): 62.1 µM; TGI (TK-10 renal): > 100 µM; TGI (U251 CNS): > 100 µM; TGI (UACC-257 melanoma): 62 µM; TGI (UACC-62 melanoma): 32 µM; TGI (UO-31 renal): 50 µM

`C/C(=N\NC(=O)/C(C#N)=C\c1ccc(N(CCC#N)CCC#N)cc1)c1ccccc1` was tested. Which TGI (786-0 renal) did it give?
Its TGI is > 10 µM.

And the TGI (A549 NSCLC)?
The TGI was > 10 µM.

And the TGI (ACHN renal)?
The TGI was > 10 µM.

What about the TGI (BT-549 breast) of the same compound?
Its TGI is > 10 µM.

And the TGI (CAKI-1 renal)?
The TGI was > 10 µM.

What about the TGI (COLO 205 colon) of the same compound?
The TGI was > 10 µM.

And the TGI (DU-145 prostate)?
The TGI was > 10 µM.

And the TGI (EKVX NSCLC)?
Its TGI is > 10 µM.

And the TGI (HCC-2998 colon)?
The TGI was > 10 µM.

And the TGI (HCT-116 colon)?
Its TGI is > 10 µM.

And the TGI (HCT-15 colon)?
The TGI was > 10 µM.

What about the TGI (HL-60(TB) leukemia) of the same compound?
The TGI was > 10 µM.

What about the TGI (HOP-62 NSCLC) of the same compound?
The TGI was > 10 µM.

What about the TGI (HOP-92 NSCLC) of the same compound?
The TGI was > 10 µM.

What about the TGI (HS 578T breast) of the same compound?
Its TGI is > 10 µM.

And the TGI (HT29 colon)?
Its TGI is > 10 µM.

And the TGI (IGROV1 ovarian)?
The TGI was > 10 µM.

What about the TGI (KM12 colon) of the same compound?
Its TGI is > 10 µM.

And the TGI (LOX IMVI melanoma)?
Its TGI is > 10 µM.

And the TGI (M14 melanoma)?
Its TGI is > 10 µM.

What about the TGI (MALME-3M melanoma) of the same compound?
The TGI was > 10 µM.

What about the TGI (MCF7 breast) of the same compound?
The TGI was > 10 µM.

What about the TGI (MDA-MB-231 breast) of the same compound?
Its TGI is > 10 µM.

What about the TGI (MDA-MB-435) of the same compound?
The TGI was > 10 µM.

What about the TGI (MDA-N) of the same compound?
Its TGI is > 10 µM.

And the TGI (MOLT-4 leukemia)?
Its TGI is > 10 µM.

What about the TGI (NCI-H226 lung) of the same compound?
Its TGI is > 10 µM.

And the TGI (NCI-H23 lung)?
The TGI was > 10 µM.

What about the TGI (NCI-H460 lung) of the same compound?
The TGI was > 10 µM.

What about the TGI (NCI-H522 lung) of the same compound?
Its TGI is > 10 µM.

What about the TGI (NCI/ADR-RES ovarian) of the same compound?
Its TGI is > 10 µM.

What about the TGI (OVCAR-4 ovarian) of the same compound?
Its TGI is > 10 µM.

What about the TGI (OVCAR-8 ovarian) of the same compound?
Its TGI is > 10 µM.

And the TGI (PC-3 prostate)?
The TGI was > 10 µM.

What about the TGI (RPMI-8226 leukemia) of the same compound?
The TGI was > 10 µM.

What about the TGI (RXF 393 renal) of the same compound?
Its TGI is > 10 µM.

And the TGI (SF-268 CNS)?
The TGI was > 10 µM.

What about the TGI (SF-295 CNS) of the same compound?
The TGI was > 10 µM.

And the TGI (SF-539 CNS)?
The TGI was > 10 µM.

What about the TGI (SK-MEL-28 melanoma) of the same compound?
The TGI was > 10 µM.

And the TGI (SK-MEL-5 melanoma)?
The TGI was > 10 µM.

What about the TGI (SK-OV-3 ovarian) of the same compound?
The TGI was > 10 µM.

And the TGI (SN12C renal)?
Its TGI is > 10 µM.

And the TGI (SNB-19 CNS)?
The TGI was > 10 µM.

What about the TGI (SNB-75 CNS) of the same compound?
Its TGI is > 10 µM.

What about the TGI (SR leukemia) of the same compound?
Its TGI is > 10 µM.

And the TGI (SW-620 colon)?
The TGI was > 10 µM.

What about the TGI (T-47D breast) of the same compound?
The TGI was > 10 µM.

What about the TGI (TK-10 renal) of the same compound?
The TGI was > 10 µM.

And the TGI (UACC-257 melanoma)?
Its TGI is > 10 µM.

And the TGI (UACC-62 melanoma)?
The TGI was > 10 µM.

And the TGI (UO-31 renal)?
Its TGI is > 10 µM.

Which results are given for `O=c1oc2cc(O)ccc2c(O)c1C(c1ccccn1)c1c(O)c2ccc(O)cc2oc1=O`?
TGI (786-0 renal): > 100 µM; TGI (A498 renal): > 100 µM; TGI (A549 NSCLC): > 100 µM; TGI (ACHN renal): > 100 µM; TGI (BT-549 breast): > 100 µM; TGI (CAKI-1 renal): > 100 µM; TGI (CCRF-CEM leukemia): > 100 µM; TGI (COLO 205 colon): > 100 µM; TGI (DU-145 prostate): > 100 µM; TGI (EKVX NSCLC): > 100 µM; TGI (HCC-2998 colon): > 100 µM; TGI (HCT-116 colon): > 100 µM; TGI (HCT-15 colon): > 100 µM; TGI (HOP-62 NSCLC): > 100 µM; TGI (HOP-92 NSCLC): > 100 µM; TGI (HS 578T breast): > 100 µM; TGI (HT29 colon): > 100 µM; TGI (IGROV1 ovarian): > 100 µM; TGI (K-562 leukemia): > 100 µM; TGI (KM12 colon): > 100 µM; TGI (LOX IMVI melanoma): > 100 µM; TGI (M14 melanoma): > 100 µM; TGI (MCF7 breast): > 100 µM; TGI (MDA-MB-231 breast): > 100 µM; TGI (MDA-MB-435): > 100 µM; TGI (MDA-N): > 100 µM; TGI (MOLT-4 leukemia): > 100 µM; TGI (NCI-H226 lung): > 100 µM; TGI (NCI-H23 lung): > 100 µM; TGI (NCI-H460 lung): > 100 µM; TGI (NCI-H522 lung): > 100 µM; TGI (NCI/ADR-RES ovarian): > 100 µM; TGI (OVCAR-3 ovarian): > 100 µM; TGI (OVCAR-5 ovarian): > 100 µM; TGI (OVCAR-8 ovarian): > 100 µM; TGI (PC-3 prostate): > 100 µM; TGI (RPMI-8226 leukemia): > 100 µM; TGI (RXF 393 renal): > 100 µM; TGI (SF-268 CNS): > 100 µM; TGI (SF-295 CNS): > 100 µM; TGI (SF-539 CNS): > 100 µM; TGI (SK-MEL-2 melanoma): > 100 µM; TGI (SK-MEL-28 melanoma): > 100 µM; TGI (SK-MEL-5 melanoma): > 100 µM; TGI (SK-OV-3 ovarian): > 100 µM; TGI (SN12C renal): > 100 µM; TGI (SNB-19 CNS): > 100 µM; TGI (SNB-75 CNS): > 100 µM; TGI (SR leukemia): > 100 µM; TGI (SW-620 colon): > 100 µM; TGI (T-47D breast): > 100 µM; TGI (TK-10 renal): > 100 µM; TGI (U251 CNS): > 100 µM; TGI (UACC-257 melanoma): > 100 µM; TGI (UACC-62 melanoma): > 100 µM; TGI (UO-31 renal): > 100 µM
